Measurements as given in ChEMBL document CHEMBL4715830, “Design, synthesis and biological evaluation of suramin-derived dual antagonists of the proinflammatory G protein-coupled receptors P2Y and GPR17” (Eur J Med Chem, 2020).
Activity calls are given as the source filed them.

Tests used:
[1] = biological target: P2Y purinoceptor 4 (Homo sapiens) (UniProt P51582); test: (§1) Antagonist activity at human P2Y4 receptor expressed in human 1321N1 cells assessed as inhibition of UTP-induced intracellular calcium influx at 10 to 100 uM preincubated for 20 mins followed by UTP addition measured at 0.4 secs interval for 60 times by Oregon Green BAPTA-1/AM dye-based fluorescence assay; type: functional, cell-based; conditions: dose 10-100 µM
[2] = biological target: P2Y purinoceptor 6 (Rattus norvegicus) (UniProt Q63371); test: as §1, with “rat P2Y6” for “human P2Y4”, “UDP-induced” for “UTP-induced”, “UDP” for “UTP”; type: functional, cell-based; conditions: dose 10-100 µM
[3] = biological target: P2Y purinoceptor 1 (Homo sapiens) (UniProt P47900); test: Antagonist activity at human P2Y1 receptor expressed in human 1321N1 cells assessed as inhibition of ADP-induced intracellular calcium influx at 10 uM preincubated for 20 mins followed by ADP addition measured at 0.4 secs interval for 60 times by Oregon Green BAPTA-1/AM dye-based fluorescence assay; type: functional, cell-based
[4] = biological target: P2Y purinoceptor 12 (Homo sapiens) (UniProt Q9H244); test: Antagonist activity at recombinant human Gi/Go-coupled GP2Y12 receptor expressed in CHOK1 cells assessed as inhibition of 2-(Methylthio)ADP-induced inhibition of beta-arrestin recruitment at 10 uM by pathhunter assay; type: cell-based; conditions: CHO-K1
[5] = biological target: T1, P2Y purinoceptor 14 (Homo sapiens) (UniProt Q15391); test: Antagonist activity at recombinant human Gi/Go-coupled GP2Y14 receptor expressed in CHOK1 cells assessed as inhibition of […]-induced inhibition of beta-arrestin recruitment at 10 uM by pathhunter assay; type: cell-based
T1 sequence (whole entry): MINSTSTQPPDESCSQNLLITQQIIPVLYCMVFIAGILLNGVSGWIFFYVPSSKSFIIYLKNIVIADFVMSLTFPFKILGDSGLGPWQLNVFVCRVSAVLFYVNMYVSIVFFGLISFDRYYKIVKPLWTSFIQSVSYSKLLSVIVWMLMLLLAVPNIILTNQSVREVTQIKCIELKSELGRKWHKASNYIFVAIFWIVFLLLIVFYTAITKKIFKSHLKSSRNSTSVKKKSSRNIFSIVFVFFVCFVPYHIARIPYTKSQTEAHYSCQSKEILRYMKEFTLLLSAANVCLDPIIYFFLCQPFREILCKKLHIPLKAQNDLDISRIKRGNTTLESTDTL

Measured: inhibition

Sequence of P2Y purinoceptor 12 (Homo sapiens) (Q9H244 whole entry): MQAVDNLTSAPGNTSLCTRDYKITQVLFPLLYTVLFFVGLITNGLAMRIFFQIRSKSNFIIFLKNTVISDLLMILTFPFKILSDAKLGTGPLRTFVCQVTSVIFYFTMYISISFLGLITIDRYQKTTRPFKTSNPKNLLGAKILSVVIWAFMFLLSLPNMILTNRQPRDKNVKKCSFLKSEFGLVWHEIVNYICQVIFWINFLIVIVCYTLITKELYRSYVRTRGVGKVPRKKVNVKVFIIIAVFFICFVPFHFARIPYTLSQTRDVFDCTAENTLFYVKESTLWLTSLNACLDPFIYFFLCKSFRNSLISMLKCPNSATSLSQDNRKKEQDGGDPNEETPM
Sequence of P2Y purinoceptor 6 (Rattus norvegicus) (Q63371 whole entry): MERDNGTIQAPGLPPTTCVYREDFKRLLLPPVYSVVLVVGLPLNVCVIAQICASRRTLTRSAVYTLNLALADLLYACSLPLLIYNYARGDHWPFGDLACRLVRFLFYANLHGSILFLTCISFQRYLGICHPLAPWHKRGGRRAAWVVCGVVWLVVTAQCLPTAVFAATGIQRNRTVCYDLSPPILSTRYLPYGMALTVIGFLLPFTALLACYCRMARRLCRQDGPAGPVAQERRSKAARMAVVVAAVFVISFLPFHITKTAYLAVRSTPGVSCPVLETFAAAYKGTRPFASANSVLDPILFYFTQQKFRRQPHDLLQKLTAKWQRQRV
Sequence of P2Y purinoceptor 4 (Homo sapiens) (P51582 whole entry): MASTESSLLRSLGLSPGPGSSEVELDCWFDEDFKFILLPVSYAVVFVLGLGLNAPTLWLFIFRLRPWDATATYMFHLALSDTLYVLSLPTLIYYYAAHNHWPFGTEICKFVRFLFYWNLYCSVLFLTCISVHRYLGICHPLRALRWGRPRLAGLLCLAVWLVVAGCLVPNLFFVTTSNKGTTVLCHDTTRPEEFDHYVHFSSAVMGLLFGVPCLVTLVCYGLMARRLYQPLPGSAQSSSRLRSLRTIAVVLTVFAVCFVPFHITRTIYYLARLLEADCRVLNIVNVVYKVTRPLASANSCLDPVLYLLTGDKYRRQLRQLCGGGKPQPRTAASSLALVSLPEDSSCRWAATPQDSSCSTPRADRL
Sequence of P2Y purinoceptor 1 (Homo sapiens) (P47900 whole entry): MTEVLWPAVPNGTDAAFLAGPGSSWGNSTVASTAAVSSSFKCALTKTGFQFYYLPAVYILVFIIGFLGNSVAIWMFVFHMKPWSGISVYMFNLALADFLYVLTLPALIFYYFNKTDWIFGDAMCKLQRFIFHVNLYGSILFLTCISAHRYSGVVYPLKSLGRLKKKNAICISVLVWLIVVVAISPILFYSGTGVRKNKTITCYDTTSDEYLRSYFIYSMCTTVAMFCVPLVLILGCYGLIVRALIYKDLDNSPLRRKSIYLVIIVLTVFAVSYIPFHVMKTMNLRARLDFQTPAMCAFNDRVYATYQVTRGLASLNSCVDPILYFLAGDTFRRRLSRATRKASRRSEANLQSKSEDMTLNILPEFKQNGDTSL

COC(=O)c1cccc(NC(=O)Nc2cccc(NC(=O)c3cccc(C)c3)c2)c1
inactive: [1] | [2] | [3] | [4] | [5]

Cc1cccc(NC(=O)c2ccc(NC(=O)c3cccc([N+](=O)[O-])c3)cc2)c1
inactive: [1] | [2] | [3] | [4] | [5]

Cc1cccc(C(=O)Nc2cccc(NC(=O)Nc3cccc(C(=O)O)c3)c2)c1
inactive: [1] | [2] | [3] | [4] | [5]

O=C(Nc1ccc(S(=O)(=O)Oc2cccc([N+](=O)[O-])c2)cc1)c1cccc(C(F)(F)F)c1
inactive: [1] | [2] | [3] | [4] | [5]

O=C(Nc1ccc(S(=O)(=O)Oc2cccc([N+](=O)[O-])c2)cc1)c1ccccc1
inactive: [1] | [2] | [3] | [4] | [5]

Cc1cccc(NC(=O)c2cccc(NC(=O)c3ccc([N+](=O)[O-])cc3)c2)c1
inactive: [1] | [2] | [3] | [4] | [5]

Cc1cccc(C(=O)Nc2ccc(S(=O)(=O)Oc3ccc([N+](=O)[O-])cc3)cc2)c1
inactive: [1] | [2] | [3] | [4] | [5]

COc1cccc(C(=O)Nc2ccc(S(=O)(=O)Oc3cccc([N+](=O)[O-])c3)cc2)c1
inactive: [1] | [2] | [3] | [4] | [5]

COC(=O)c1cccc(NC(=O)Nc2cccc(C(=O)Nc3cccc(C)c3)c2)c1
inactive: [1] | [2] | [3] | [4] | [5]

O=C(Nc1ccc(S(=O)(=O)Oc2cccc([N+](=O)[O-])c2)cc1)c1cccc(Br)c1
inactive: [1] | [2] | [3] | [4] | [5]

CC(=O)c1cccc(C(=O)Nc2ccc(S(=O)(=O)Oc3cccc([N+](=O)[O-])c3)cc2)c1
inactive: [1] | [2] | [3] | [4] | [5]

Cc1cccc(NC(=O)c2ccc(NC(=O)c3ccc([N+](=O)[O-])cc3)cc2)c1
inactive: [1] | [2] | [3] | [4] | [5]

O=C(Nc1ccc(S(=O)(=O)Oc2cccc([N+](=O)[O-])c2)cc1)c1ccc(Cl)cc1
inactive: [1] | [2] | [3] | [4] | [5]

Cc1cccc(NC(=O)c2cccc(NC(=O)c3cccc([N+](=O)[O-])c3)c2)c1
inactive: [1] | [2] | [3] | [4] | [5]

COC(=O)c1cccc(NC(=O)Nc2ccc(NC(=O)c3cccc(C)c3)cc2)c1
inactive: [1] | [2] | [3] | [4] | [5]

O=C(Nc1ccc(S(=O)(=O)Oc2cccc([N+](=O)[O-])c2)cc1)c1cccc(Cl)c1
inactive: [1] | [2] | [3] | [4] | [5]
